# Experimental data: the supplement of paper PMC8967900
# Legend:
# Experiment in all cases: selective drug sensitivity score (sDSS, relative to normal bone marrow) (sDSS (score)); higher = more potent and effective on the cell line relative to normal bone marrow cells
# Conditions in all cases: 72 h
# [1] = system: NALL-1
# [2] = system: LC4-1
# [3] = system: SUP-B15
# 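Note: ALL cell lines in 384-well plates, five doses spanning 10,000-fold, each plate scaled between vehicle and 100 µmol/L benzalkonium chloride controls, sDSS an adapted area-under-curve metric.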
Structure (SMILES),selective drug sensitivity score [1],selective drug sensitivity score [2],selective drug sensitivity score [3]
CN(CC(=O)N(Cc1ccc(C2CCCCC2)cc1)c1ccc(C(=O)O)cc1)S(=O)(=O)c1c(F)c(F)c(F)c(F)c1F [SH-4-54] (top concentration 25000 nM),-6.84,-3.34,-5.94
Nc1cc(COc2c(Cl)cc(C[C@H](N)C(=O)O)cc2Cl)c2oc(-c3ccccc3)nc2c1 [JPH203] (top concentration 5000 nM),0,0,0
CCN(CC)CCN(Cc1ccc(-c2ccc(C(F)(F)F)cc2)cc1)C(=O)Cn1c(SCc2ccc(F)cc2)nc(=O)c2c1CCC2 [Darapladib] (top concentration 1000 nM),6.18,-1.42,-1.42
Cn1cc(C[C@@H](N)C(=O)O)c2ccccc21 [1-methyl-D-tryptophan] (top concentration 5000 nM),-0.62,-0.62,-0.62
CCc1cc2c(cc1N1CCC(N3CCOCC3)CC1)C(C)(C)c1[nH]c3cc(C#N)ccc3c1C2=O [Alectinib] (top concentration 1000 nM),-0.22,3.18,-0.22
C=CC(=O)N1CCC(Oc2cc3c(Nc4ccc(Cl)c(Cl)c4F)ncnc3cc2OC)CC1 [Poziotinib] (top concentration 1000 nM),3.28,0.78,2.98
COc1cc(C)[nH]c(=O)c1CNC(=O)c1c(C)n([C@H](C)C2CCOCC2)c2ccccc12 [CPI-360] (top concentration 10000 nM),0,0,0
Cn1nnc2c(C(N)=O)ncn2c1=O [Temozolomide] (top concentration 100000 nM),-0.04,-0.04,-0.04
NC(=O)c1cccc(-c2cccc(OC(=O)NC3CCCCC3)c2)c1 [URB597] (top concentration 1000 nM),-0.46,0.44,0.94
CCN(CC)CCCC(C)Nc1ccnc2cc(Cl)ccc12 (stereo not drawn) [Chloroquine] (top concentration 100000 nM),-8.84,-3.74,-4.14
C=CCc1cccc(/C=N/NC(=O)CN2CCN(Cc3ccccc3)CC2)c1O [PAC-1] (top concentration 10000 nM),-0.42,0.18,2.08
Cc1cc(F)c(C(=O)Nc2cccc(-c3nncn3C(C)C)n2)cc1-n1cnc(C2CC2)c1 [Selonsertib] (top concentration 1000 nM),0,0,0
COCCOc1cnc2ccn([C@H](C)c3nnc4c(F)cc(-c5cnn(C)c5)cn34)c(=O)c2c1 [AMG-337] (top concentration 10000 nM),2.14,-0.06,-0.06
COc1cc2c(N3CCN(C(=O)Nc4ccc(OC(C)C)cc4)CC3)ncnc2cc1OCCCN1CCCCC1 [Tandutinib] (top concentration 1000 nM),0,0,0.5
COc1cccc(-c2ccc(NC(=O)C3=C(C(=O)O)CCC3)c(F)c2)c1 [Vidofludimus] (top concentration 10000 nM),1.9,6.1,6
COc1cc2c(Oc3ccc4[nH]c(C)cc4c3F)ncnc2cc1OCCCN1CCCC1 [Cediranib] (top concentration 1000 nM),0,0,0
Cc1cc(-c2ncc(CC(=O)Nc3ccc(-c4cnccn4)cn3)cc2C)ccn1 [NVP-LGK974] (top concentration 10000 nM),1.5,1.2,3.9
O=C(O)CNC(=O)c1c(O)c2ccccc2n(Cc2ccccc2)c1=O [IOX-2] (top concentration 50000 nM),-0.82,-0.82,-0.82
COc1cc2ncnc(Nc3cccc(Cl)c3F)c2cc1OC(=O)N1CCN(C)C[C@H]1C [AZD3759] (top concentration 1000 nM),0.86,-0.04,-0.04
COc1cc(Br)c(Nc2nc(-c3c(C)nc4ncccn34)cs2)c(Br)c1 [PTC-209] (top concentration 10000 nM),-1.78,0.12,-0.18
Cc1cc2c(C(=O)NC[C@H](C)c3ccccc3)c(O)c(O)cc2c(O)c1-c1c(C)cc2c(C(=O)NC[C@H](C)c3ccccc3)c(O)c(O)cc2c1O [Sabutoclax] (top concentration 25000 nM),-8.22,13.8,16
